Common to all, as to type: biochemical, Chlamydia trachomatis
In test [1] the test system is CtHtrA R373A. The test is described as follows: Oligomerisation assay, mutated protein. Conditions: R373A mutant, 10 mins incubation. The protocol: (§1) E. coli DegP proteolysis activation involves the transition from resting hexamers via trimers to 12- and 24-mers following the peptide activator binding to the PDZ1 binding cleft. CtHtrA oligomer formation induced by Act1 addition was examined after incubation for 10 mins at 37°C. The wild type and mutant proteins were incubated with either the ß-casein based activator peptide (Act1), or with whole insulin (intact), or in the absence of any activator as a control. CtHtrA incubated in the absence of any added activators formed 24-mers with some hexamers detected after 10 mins (Fig. 5). […] The R299W mutant was present as hexamer and 24-mer in the control with no activator. […] The L302N mutant was not detected in any higher oligomeric form under any conditions. L302N was detected as faint hexamer and trimer but mostly monomer under all tested conditions (not visible on these gels). […] I365D was detected as hexamers, trimers, 12-mers, and some 24-mers when incubated in the absence of activators.
(§2) The oligomerisation of HtrA into 12- and 24-mer complexes has been independently detected for E. coli HtrA (DegP). The oligomerisation of HtrA (DegP) was triggered by peptides from digested ß-casein [18]. Assays to detect whether CtHtrA and site directed mutant protein oligomerisation was triggered by substrates were conducted essentially as previously described (Merdanovic et al., 2010). Briefly, 2 mg/ml protein solutions in 100 mM sodium phosphate buffer pH 7.0 were pre-incubated to the required temperature. The ligands (activator peptide, or insulin) were added and at 10 min, and the proteins were fixed using 0.5% glutaraldehyde. Samples were fixed at room temperature for 2 min prior to addition of 1 M Tris pH 7.5 to remove any excess glutaraldehyde. Samples were incubated for another 10 min at room temperature prior to addition of SDS PAGE reducing loading buffer. The protein samples were examined on 3–8% TrisAcetate gradient polyacrylamide gels (Novex, Invitrogen) by silver staining. The proteins used in this study were not initially denatured by treatment with urea as, the refolding, formation of oligomers, and protease activity was never successfully detected with denatured CtHtrA. All assays were conducted in duplicate on three separate occasions with at least two gels of each experiment completed for each assay condition.

For test [2], the system named is CtHtrA I365D. The test is described as follows: Oligomerisation assay, mutated protein. Conditions: I365D mutant, 10 mins incubation. The protocol:
as §1, §2

Test [3] concerns CtHtrA R299W. The test is described as follows: Oligomerisation assay, mutated protein. Conditions: R299W mutant, 10 mins incubation. The method, then:
as §1, §2

For test [4], the system named is CtHtrA I365D. The test is described as follows: Act1 activation of Bcas1 proteolysis by mutated protein. Conditions: I365D mutant; Act1 120 µM. The text has this: The hexameric CtHtrA molecular model was examined to identify the putative PDZ1 activator binding cleft (Fig. 4). The base of this cleft in CtHtrA is a hydrophobic pocket formed by the residues L302 and I365 (V328 in E. coli DegP) (Fig. 4). L302 and I365 were targeted for site directed mutagenesis (L302N and I365D) to make this non-polar pocket either polar or charged. The role of a potential conformational change caused by movement of the whole PDZ1 domain relative to the protease subunit was also tested by mutating a highly conserved arginine residue (R299W) on the flexible loop between the protease and PDZ domains. This mutation was made in order to alter the flexibility around this residue while occupying a similar sized area. Additionally, a second mutation was made in conjunction with the R299W mutation on the residue R373A which potentially forms a salt bridge between the PDZ domain and protease domain. This double mutation was made in order to reduce the flexibility and disrupt the mobile salt bridge involved in the PDZ1:protease domain interface. The R373A mutation was also made independently of R299W. These mutated proteins were assayed to examine the impact of the changes on Act1 activation on the Bcas1 substrate proteolysis. […]
The purified recombinant protein was examined by Coomassie stained polyacrylamide gels and activity was checked using ß-casein cleavage assays prior to use in peptide assays. […] Protease assays using pNA labelled peptides were conducted using the xMARK Microplate spectrophotometer (Bio-Rad) at 405 nm, incubated at 37°C, with a reading taken every 10 s for 30 min. The maximum slope over a minimum of 8 readings was used for the data analysis. […] The assays were excited at 340 nm and emission was detected at 405 nm with a gain of 1000, the assays were monitored every 20 s or at the minimum cycle time for up to 40 min. […] The assay results shown for the fluorescent compounds have been normalised for the amount of fluorescent emission detected using a standard curve of known concentrations of the MCA fluorophore under the identical assay conditions. […]

Test [5] deals with CtHtrA R373A/R299W. The test can be described thus: Oligomerisation assay, mutated protein. As to conditions: R373A/R299W mutant, 10 mins incubation.
From the text: This activation was very similar to that observed for CtHtrA, and was the only condition during which any of the mutated proteins oligomerised in a similar profile to CtHtrA.
as §2, with “All assays were conducted in duplicate on three separate occasions with at least two gels of each experiment completed for each assay condition.” left out

As to H-VLGPVRGPFPIIV-OH [Act1], the “oligomer formation induced by activator” value in test [1] was “resulted in 24-mer formation”; in test [2] it was “no 12-mers, but only hexamers and 24-mers were detected”; in test [3] it was “Low levels of 24-mer were formed”; in test [5] it was “induced R373A/R299W 24-mer formation”. In test [4], the “effect of Act1 on Bcas1 proteolysis rate” value is recorded as “failed to increase the proteolysis rate”.

These data come from publication PMC3169616, “Unique Residues Involved in Activation of the Multitasking Protease/Chaperone HtrA from Chlamydia trachomatis” (PLoS ONE, 2011).
